In patent publication US9783545B2, “Pyrazolopyridazines and methods for treating retinal-degenerative diseases and hearing loss associated with usher syndrome” (Usher III Initiative, Inc., priority 2012, dated 2017) one finds IC50 and EC50 data, which are given here for 21 compounds.

The structures appear in SMILES notation.

For assay [1], the target named is T1, N48K Clarin-1 (Homo sapiens, UniProt P58418, N48K).
T1 construct: expressed in transfected cells
T1 sequence (P58418 1-232 N48K): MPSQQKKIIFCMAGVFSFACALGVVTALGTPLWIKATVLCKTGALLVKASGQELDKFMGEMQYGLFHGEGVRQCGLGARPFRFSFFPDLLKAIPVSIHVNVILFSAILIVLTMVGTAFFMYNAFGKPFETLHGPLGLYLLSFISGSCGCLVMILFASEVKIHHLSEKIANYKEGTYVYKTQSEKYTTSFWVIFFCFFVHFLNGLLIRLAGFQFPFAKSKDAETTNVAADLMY
Put plainly: Restoration of expression of N48K Clarin-1, 2 hour incubation then 22 hr fresh medium (high content imaging of HA-tagged N48K Clarin-1). It counts as cell-based. The note with it: HEK293-Clarin-1 N48K-HA D9 cell line, 2 hr incubation with compound, then 22 hr in fresh medium. The procedure:
An Assay Method Showing Activity of Compounds of the Invention that Restore Expression of N48K Clarin-1(2 hour incubation)
(§1) Clarin-1 is the protein encoded by the gene mutated in Usher III Syndrome (Adato et al., 2002). The most prevalent mutation in Clarin-1 in North America is N48K, which is reported to cause loss of glycosylation and a trafficking defect (Tian et al., 2009). […] Thus it is believed that restoring the trafficking of N48K Clarin-1 to the cell surface provides an avenue of intervention for Usher III Sydrome.
(§2) In a typical experiment, these cells were seeded on collagen-coated 96-well plates at a cell density of 20,000 cells per well in Dulbecco's Modified Eagle Medium (DMEM) contain 10% fetal bovine serum in a humidified incubator at 37° C., 5% CO2. After an overnight incubation, compounds were added for a 2 hr incubation in DMEM medium contain 10% fetal bovine serum in a humidified incubator at 37° C., 5% CO2. As a negative control, DMSO was used at 0.25% final concentrations. Compounds were typically tested in triplicate fashion. After the 2 hr incubation with compounds, the cells were incubated in fresh medium for 22 hr. The cells were then fixed by the addition of 10% buffered formalin to the wells to achieve a final concentration of 4% formalin. After a 20 min fixation at room temperature, wells were washed three times with phosphate-buffered saline (PBS) containing Triton X-100 (0.02 phosphate, 150 mM NaCl, 0.1% Triton X-100).
(§3) The HA-tagged N48K Clarin-1 was detected with an antibody against the HA tag (HA.11 Clone 16B12 Monoclonal antibody, Covance #MMS-101P) at a dilution of 1:1000 in PBS containing Triton X-100. After a 90 min incubation, wells were washed three times with PBS containing Triton X-100, and a secondary antibody (Goat anti-mouse IgG-Cy3 (1.5 mg/ml), Jackson IR Europe #115165003) was added to the wells at a dilution of 1:250 in PBS containing Triton X-100 for 45 min. Wells were subsequently washed three times with PBS containing Triton X-100, and a final staining for nuclei was performed by the addition of DAPI (4′,6-diamidino-2-phenylindole) at a dilution of 1:10,000. The imaging of the stained cells was performed on an InCell 1000 High Content Imager (GE Healthcare), reading out the Cy3 channel for N48K Clarin-1 and the DAPI channel for nuclei. The images are analyzed and quantitated using a specific algorithm. This algorithm measured the HA-Clarin-1 staining for each cell based on the additional nuclear segmentation of the DAPI signal (FIG. 1). This algorithm measured the intensity per cell, and thus it is less sensitive for variation in cell number. Per well, approximately 2,000 cells were measured to achieve an average density per cell measurement.

Assay [2] addresses T1, N48K Clarin-1. The experiment in a line: Restoration of expression of N48K Clarin-1, 24 hour incubation (high content imaging of HA-tagged N48K Clarin-1). It counts as cell-based. Conditions: HEK293-Clarin-1 N48K-HA D9 cell line, 24 hr incubation with compound; read-out: IC50 (the source's name). The procedure:
Assay Method Showing Activity of Compounds of the Invention that Restore Expression of N48K Clarin-1 (24 hour incubation)
as §1
as §2, with “for a 24 hr incubation” for “for a 2 hr incubation”, “After the 24 hr incubation” for “After the 2 hr incubation”, “cells were fixed by” for “cells were incubated in fresh medium for 22 hr. The cells were then fixed by”
as §3, with “images were” for “images are”, “measurement. FIG. 1 illustrates high content analysis. DAPI-stained nuclei are used to perform segmentation of the image into individual cells. The density observed in the N48K Clarin-1 channel (Cy3) is then calculated per cell averaged over a field.” for “measurement.”

In the case of `CS(=O)(=O)CCn1nc(-c2ccccc2)c2c(Cl)c(-c3ccccc3)nnc21` [IIq, 4-chloro-1-(2-methylsulfonylethyl)-3,5-diphenyl-pyrazolo[3,4-c]pyridazine], the half-maximal inhibitory concentration (IC50) in assay [1] was no more than 4 µM. The EC50 in assay [2] is no more than 2 µM.

Regarding `COC/C=C/c1nn(CCN2CCN(C)CC2)c2nnc(-c3ccccc3)c(Cl)c12` [Ii, (E)-4-chloro-3-(3-methoxyprop-1-en-1-yl)-1-(2-(4-methylpiperazin-1-yl)ethyl)-5-phenyl-1H-pyrazolo[3,4-c]pyridazine], the IC50 in assay [1] was no more than 4 µM. For the same compound, the EC50 in assay [2] was no more than 2 µM.

`Clc1c(-c2ccccc2)nnc2c1c(-c1ccccc1)nn2Cc1cocn1` [IIh, 4-[(4-chloro-3,5-diphenyl-pyrazolo[3,4-c]pyridazin-1-yl)methyl]oxazole]: in assay [1], the half-maximal inhibitory concentration (IC50) was no more than 4 µM. For the same compound, in assay [2], the EC50 was no more than 2 µM.

Regarding `CN1CCN(CCn2nc(-c3cccn3C)c3c(Cl)c(-c4ccccc4)nnc32)CC1` [Ik, 4-chloro-3-(1-methyl-1H-pyrrol-2-yl)-1-(2-(4-methylpiperazin-1-yl)ethyl)-5-phenyl-1H-pyrazolo[3,4-c]pyridazine], the IC50 in assay [1] was no more than 4 µM. Moreover, the EC50 in assay [2] was no more than 2 µM.

Take `FCCn1nc(-c2ccccc2)c2c(Cl)c(-c3ccccc3)nnc21` [IIl, 4-chloro-1-(2-fluoroethyl)-3,5-diphenyl-pyrazolo[3,4-c]pyridazine]: the IC50 in assay [1] is no more than 4 µM. The EC50 in assay [2] is no more than 2 µM.

Take `O=C1CCCN1CCn1nc(-c2ccccc2)c2c(Cl)c(-c3ccccc3)nnc21` [IIb, 1-[2-(4-chloro-3,5-diphenyl-pyrazolo[3,4-c]pyridazin-1-yl)ethyl]pyrrolidin-2-one]: the IC50 in assay [1] was no more than 4 µM. In addition, in assay [2], the EC50 is no more than 2 µM.

Consider `CN1CCN(CCn2nc(-c3ccc4c(c3)CCO4)c3c(Cl)c(-c4ccccc4)nnc32)CC1` [Il, 4-chloro-3-(2,3-dihydrobenzofuran-5-yl)-1-(2-(4-methylpiperazin-1-yl)ethyl)-5-phenyl-1H-pyrazolo[3,4-c]pyridazine], for which the IC50 in assay [1] was no more than 4 µM. Further, the EC50 in assay [2] is no more than 2 µM.

With `CN1CCN(CCn2nc(-c3cnn(C)c3)c3c(Cl)c(-c4ccccc4)nnc32)CC1` [Ic, 4-chloro-3-(1-methyl-1H-pyrazol-4-yl)-1-(2-(4-methylpiperazin-1-yl)ethyl)-5-phenyl-1H-pyrazolo[3,4-c]pyridazine], in assay [1], the IC50 lay in the range of 4 to 8 µM. The EC50 in assay [2] was no more than 2 µM.

On to `Cn1cc(Cn2nc(-c3ccccc3)c3c(Cl)c(-c4ccccc4)nnc32)cn1` [IIg, 4-chloro-1-[(1-methylpyrazol-4-yl)methyl]-3,5-diphenyl-pyrazolo[3,4-c]pyridazine], for which the 50% inhibitory concentration (IC50) in assay [1] is no more than 4 µM. Further, in assay [2], the EC50 was no more than 2 µM.

`Fc1cccc(-c2nn(CCn3ccnc3)c3nnc(-c4ccccc4)c(Cl)c23)c1` [IIs, 4-chloro-3-(3-fluorophenyl)-1-(2-imidazol-1-ylethyl)-5-phenyl-pyrazolo[3,4-c]pyridazine]: in assay [1], the IC50 is no more than 4 µM. Further, in assay [2], the EC50 was no more than 2 µM.

As to `Cn1cncc1Cn1nc(-c2ccccc2)c2c(Cl)c(-c3ccccc3)nnc21` [IIa, 4-chloro-1-[(3-methylimidazol-4-yl)methyl]-3,5-diphenyl-pyrazolo[3,4-c]pyridazine], the half-maximal inhibitory concentration (IC50) in assay [1] lay in the range of 4 to 8 µM. The EC50 in assay [2] was no more than 2 µM.

In the case of `Fc1cccc(-c2nn(CCN3CC[C@@H](F)C3)c3nnc(-c4ccccc4)c(Cl)c23)c1` [IIx, 4-chloro-3-(3-fluorophenyl)-1-[2-[(3R)-3-fluoropyrrolidin-1-yl]ethyl]-5-phenyl-pyrazolo[3,4-c]pyridazine], the IC50 in assay [1] was no more than 4 µM.

With `Cc1ccc(-c2nn(CCN3CCN(C)CC3)c3nnc(-c4ccccc4)c(Cl)c23)o1` [Io, 4-chloro-3-(5-methyl-2-furyl)-1-[2-(4-methylpiperazin-1-yl)ethyl]-5-phenyl-pyrazolo[3,4-c]pyridazine], the IC50 in assay [1] was no more than 4 µM.

With `Clc1c(-c2ccccc2)nnc2c1c(-c1ccccc1)nn2C[C@H]1CCCO1` [IIj, 4-chloro-3,5-diphenyl-1-[[(2R)-tetrahydrofuran-2-yl]methyl]pyrazolo[3,4-c]pyridazine], the IC50 in assay [1] is no more than 4 µM. The EC50 in assay [2] is no more than 2 µM.

As to `F[C@@H]1CCN(CCn2nc(-c3ccccc3)c3c(Cl)c(-c4ccccc4)nnc32)C1` [IIu, 4-chloro-1-[2-1[(3R)-3-fluoropyrrolidin-1-yl]ethyl]-3,5-diphenyl-pyrazolo[3,4-c]pyridazine], the IC50 in assay [1] was no more than 4 µM.

Turning to `Clc1c(-c2ccccc2)nnc2c1c(C1=CCOCC1)nn2CCN1CCCC1` [Is, 4-chloro-3-(3,6-dihydro-2H-pyran-4-yl)-5-phenyl-1-(2-pyrrolidin-1-ylethyl)pyrazolo[3,4-c]pyridazine], in assay [1], the IC50 was no more than 4 µM.

Consider `Clc1c(-c2ccccc2)nnc2c1c(-c1ccccc1)nn2CCn1ccnc1` [IIc, 4-chloro-1-(2-imidazol-1-ylethyl)-3,5-diphenyl-pyrazolo[3,4-c]pyridazine], for which, in assay [1], the concentration for half-maximal inhibition (IC50) was no more than 4 µM. Besides, the EC50 in assay [2] is no more than 2 µM.

On to `CC1(Cn2nc(-c3ccccc3)c3c(Cl)c(-c4ccccc4)nnc32)COC1` [IIf, 4-chloro-1-[(3-methyloxetan-3-yl)methyl]-3,5-diphenyl-pyrazolo[3,4-c]pyridazine], for which the half-inhibitory concentration (IC50) in assay [1] was no more than 4 µM. The EC50 in assay [2] is no more than 2 µM.

Consider `Clc1c(-c2ccccc2)nnc2c1c(-c1ccccc1)nn2Cc1cccnc1` [IIn, 4-chloro-3,5-diphenyl-1-(3-pyridylmethyl)pyrazolo[3,4-c]pyridazine], for which the IC50 in assay [1] was no more than 4 µM. Further, the EC50 in assay [2] is no more than 2 µM.

As to `Fc1ccc(-c2nn(CCN3CC[C@@H](F)C3)c3nnc(-c4ccccc4)c(Cl)c23)cc1` [IIy, 4-chloro-3-(4-fluorophenyl)-1-[2-[(3R)-3-fluoropyrrolidin-1-yl]ethyl]-5 phenyl-pyrazolo[3,4-c]pyridazine], in assay [1], the IC50 was no more than 4 µM.

With `Clc1c(-c2ccccc2)nnc2c1c(I)nn2CCN1CCCC1` [Ir, 4-chloro-3-iodo-5-phenyl-1-(2-pyrrolidin-1-ylethyl)pyrazolo[3,4-c]pyridazine], the IC50 in assay [1] is no more than 4 µM.
